In patent US7618816B2, “Metal-binding therapeutic peptides” (Ontherix, Inc., priority 2005, dated 2009):

How the values were obtained:
[1] = test system: HS 913T; experiment: Uptake of SA-HRP::MBD peptide complexes; assay type: cell-based, human
Procedure: (§1) HEK293 kidney cell line and 54 tumor cell lines obtained from the National Cancer Institute and passaged in RPMI1640 cell culture medium supplemented with 10% fetal bovine serum and 10 uM FeCl2. Uptake of streptavidin-horseradish peroxidase (SA-HRP) conjugate and of various SA-HRP::MBD peptide complexes was determined as described (Singh et al. J Biol Chem. 279 (1):477-87 [2004]) using biotinylated MBD9 ([…]) (SEQ ID NO: 10) and MBD21 ([…]) (SEQ ID NO: 4) peptides and SA-HRP. Nuclear and cytoplasmic localization of these proteins was also determined in each case. […] In order to establish the underlying molecular mechanism for this variability, we cross-linked MBD21 peptide to the following cell surface markers at 4 degrees Celsius as previously described (Singh et al. J Biol Chem. 279 (1):477-87 [2004]): transferrin receptor 1, caveolin 1, PCNA, integrins alpha v, 2, 5 and 6, integrins beta 1, 3 and 5. […] Based on the strength of these correlations, it was possible to derive crude predictive formulae for MBD-mediated uptake based on the rate of cross-linking to surface markers. Such predictive formulas could form the basis for a diagnostic procedure to select appropriate targets for MBD-based therapies.

[2] = test system: MX-1; experiment: Uptake of SA-HRP::MBD peptide complexes; assay type: cell-based, human
Procedure: as §1

[3] = test system: COLO 205; experiment: Uptake of SA-HRP::MBD peptide complexes; assay type: cell-based, human
Procedure: as §1

[4] = test system: MCF 7; experiment: Uptake of SA-HRP::MBD peptide complexes; assay type: cell-based, human
Procedure: as §1

[5] = test system: WIDR; experiment: Uptake of SA-HRP::MBD peptide complexes; assay type: cell-based, human
Procedure: as §1

[6] = test system: SK-0V-3; experiment: Uptake of SA-HRP::MBD peptide complexes; assay type: cell-based, human
Procedure: as §1

[7] = test system: RPMI 8226; experiment: Uptake of SA-HRP::MBD peptide complexes; assay type: cell-based, human
Procedure: as §1

[8] = test system: MOLT4; experiment: Uptake of SA-HRP::MBD peptide complexes; assay type: cell-based, human
Procedure: as §1

[9] = test system: Lewis Lung; experiment: Uptake of SA-HRP::MBD peptide complexes; assay type: cell-based, human
Procedure: as §1

[10] = test system: HOP 18; experiment: Uptake of SA-HRP::MBD peptide complexes; assay type: cell-based, human
Procedure: as §1

[11] = test system: BT-549; experiment: Uptake of SA-HRP::MBD peptide complexes; assay type: cell-based, human
Procedure: as §1

[12] = test system: NCI-H226; experiment: Uptake of SA-HRP::MBD peptide complexes; assay type: cell-based, human
Procedure: as §1

[13] = test system: A498; experiment: Uptake of SA-HRP::MBD peptide complexes; assay type: cell-based, human
Procedure: as §1

[14] = test system: NHI-H322M; experiment: Uptake of SA-HRP::MBD peptide complexes; assay type: cell-based, human
Procedure: as §1

[15] = test system: SW-620; experiment: Uptake of SA-HRP::MBD peptide complexes; assay type: cell-based, human
Procedure: as §1

[16] = test system: EKVX; experiment: Uptake of SA-HRP::MBD peptide complexes; assay type: cell-based, human
Procedure: as §1

[17] = test system: OVCAR-4; experiment: Uptake of SA-HRP::MBD peptide complexes; assay type: cell-based, human
Procedure: as §1

[18] = test system: OVCAR-5; experiment: Uptake of SA-HRP::MBD peptide complexes; assay type: cell-based, human
Procedure: as §1

[19] = test system: ACHN; experiment: Uptake of SA-HRP::MBD peptide complexes; assay type: cell-based, human
Procedure: as §1

[20] = test system: CAKI-1; experiment: Uptake of SA-HRP::MBD peptide complexes; assay type: cell-based, human
Procedure: as §1

[21] = test system: SN12C; experiment: Uptake of SA-HRP::MBD peptide complexes; assay type: cell-based, human
Procedure: as §1

[22] = test system: HOP 92; experiment: Uptake of SA-HRP::MBD peptide complexes; assay type: cell-based, human
Procedure: as §1

[23] = test system: HCT-15; experiment: Uptake of SA-HRP::MBD peptide complexes; assay type: cell-based, human
Procedure: as §1

[24] = test system: NCI-H522; experiment: Uptake of SA-HRP::MBD peptide complexes; assay type: cell-based, human
Procedure: as §1

[25] = test system: UO-31; experiment: Uptake of SA-HRP::MBD peptide complexes; assay type: cell-based, human
Procedure: as §1

[26] = test system: TK-10; experiment: Uptake of SA-HRP::MBD peptide complexes; assay type: cell-based, human
Procedure: as §1

[27] = test system: 786-O; experiment: Uptake of SA-HRP::MBD peptide complexes; assay type: cell-based, human
Procedure: as §1

[28] = test system: A549; experiment: Uptake of SA-HRP::MBD peptide complexes; assay type: cell-based, human
Procedure: as §1

[29] = test system: CHA-59; experiment: Uptake of SA-HRP::MBD peptide complexes; assay type: cell-based, human
Procedure: as §1

[30] = test system: DU-145; experiment: Uptake of SA-HRP::MBD peptide complexes; assay type: cell-based, human
Procedure: as §1

[31] = test system: KM12; experiment: Uptake of SA-HRP::MBD peptide complexes; assay type: cell-based, human
Procedure: as §1

[32] = test system: 54 tumor cell lines; experiment: Uptake of SA-HRP::MBD peptide complexes, median of the survey; assay type: cell-based; conditions: median over tumor cell lines
Procedure: as §1

KKGFYKKKKQCRPSKGRKRGFCWNGRK [MBD9]
SA-HRP uptake, Cyt. ([1]; cytoplasmic): 3.4 ng | SA-HRP uptake, Nuc. ([1]; nuclear): 1.1 ng | SA-HRP uptake, Cyt. ([2]; MX-1, cytoplasmic): 10.8 ng | SA-HRP uptake, Nuc. ([2]; MX-1, nuclear): 3.1 ng | SA-HRP uptake, Cyt. ([3]; COLO 205, cytoplasmic): 2.9 ng | SA-HRP uptake, Nuc. ([3]; COLO 205, nuclear): 0.9 ng | SA-HRP uptake, Cyt. ([4]; MCF 7, cytoplasmic): 26.7 ng | SA-HRP uptake, Nuc. ([4]; MCF 7, nuclear): 19.8 ng | SA-HRP uptake, Cyt. ([5]; cytoplasmic): 3.4 ng | SA-HRP uptake, Nuc. ([5]; nuclear): 0.7 ng | SA-HRP uptake, Cyt. ([6]; SK-0V-3, cytoplasmic): 2.0 ng | SA-HRP uptake, Nuc. ([6]; SK-0V-3, nuclear): 0.4 ng | SA-HRP uptake, Cyt. ([7]; RPMI 8226, cytoplasmic): 6.5 ng | SA-HRP uptake, Nuc. ([7]; RPMI 8226, nuclear): 0.0 ng | SA-HRP uptake, Cyt. ([8]; MOLT4, cytoplasmic): 12.7 ng | SA-HRP uptake, Nuc. ([8]; MOLT4, nuclear): 0.0 ng | SA-HRP uptake, Cyt. ([9]; cytoplasmic): 8.6 ng | SA-HRP uptake, Nuc. ([9]; nuclear): 7.2 ng | SA-HRP uptake, Cyt. ([10]; HOP 18, cytoplasmic): 16.6 ng | SA-HRP uptake, Nuc. ([10]; HOP 18, nuclear): 8.1 ng | SA-HRP uptake, Cyt. ([11]; BT-549, cytoplasmic): 7.2 ng | SA-HRP uptake, Nuc. ([11]; BT-549, nuclear): 2.1 ng | SA-HRP uptake, Cyt. ([12]; NCI-H226, cytoplasmic): 2.6 ng | SA-HRP uptake, Nuc. ([12]; NCI-H226, nuclear): 1.8 ng | SA-HRP uptake, Cyt. ([13]; A498, cytoplasmic): 28.5 ng | SA-HRP uptake, Nuc. ([13]; A498, nuclear): 12.4 ng | SA-HRP uptake, Cyt. ([14]; cytoplasmic): 5.2 ng | SA-HRP uptake, Nuc. ([14]; nuclear): 5.0 ng | SA-HRP uptake, Cyt. ([15]; SW-620, cytoplasmic): 3.2 ng | SA-HRP uptake, Nuc. ([15]; SW-620, nuclear): 0.7 ng | SA-HRP uptake, Cyt. ([16]; cytoplasmic): 7.2 ng | SA-HRP uptake, Nuc. ([16]; nuclear): 4.2 ng | SA-HRP uptake, Cyt. ([17]; OVCAR-4, cytoplasmic): 9.9 ng | SA-HRP uptake, Nuc. ([17]; OVCAR-4, nuclear): 2.7 ng | SA-HRP uptake, Cyt. ([18]; OVCAR-5, cytoplasmic): 2.7 ng | SA-HRP uptake, Nuc. ([18]; OVCAR-5, nuclear): 1.2 ng | SA-HRP uptake, Cyt. ([19]; cytoplasmic): 9.6 ng | SA-HRP uptake, Nuc. ([19]; nuclear): 2.9 ng | SA-HRP uptake, Cyt. ([20]; CAKI-1, cytoplasmic): 7.4 ng | SA-HRP uptake, Nuc. ([20]; CAKI-1, nuclear): 1.8 ng | SA-HRP uptake, Cyt. ([21]; cytoplasmic): 10.6 ng | SA-HRP uptake, Nuc. ([21]; nuclear): 3.5 ng | SA-HRP uptake, Cyt. ([22]; HOP 92, cytoplasmic): 2.5 ng | SA-HRP uptake, Nuc. ([22]; HOP 92, nuclear): 1.6 ng | SA-HRP uptake, Cyt. ([23]; HCT-15, cytoplasmic): 4.0 ng | SA-HRP uptake, Nuc. ([23]; HCT-15, nuclear): 0.8 ng | SA-HRP uptake, Cyt. ([24]; NCI-H522, cytoplasmic): 9.1 ng | SA-HRP uptake, Nuc. ([24]; NCI-H522, nuclear): 3.7 ng | SA-HRP uptake, Cyt. ([25]; UO-31, cytoplasmic): 4.6 ng | SA-HRP uptake, Nuc. ([25]; UO-31, nuclear): 1.0 ng | SA-HRP uptake, Cyt. ([26]; TK-10, cytoplasmic): 4.0 ng | SA-HRP uptake, Nuc. ([26]; TK-10, nuclear): 1.3 ng | SA-HRP uptake, Cyt. ([27]; cytoplasmic): 2.9 ng | SA-HRP uptake, Nuc. ([27]; nuclear): 3.9 ng | SA-HRP uptake, Cyt. ([28]; A549, cytoplasmic): 9.6 ng | SA-HRP uptake, Nuc. ([28]; A549, nuclear): 3.5 ng | SA-HRP uptake, Cyt. ([29]; CHA-59, cytoplasmic): 24.7 ng | SA-HRP uptake, Nuc. ([29]; CHA-59, nuclear): 9.7 ng | SA-HRP uptake, Cyt. ([30]; DU-145, cytoplasmic): 3.1 ng | SA-HRP uptake, Nuc. ([30]; DU-145, nuclear): <0.04 ng | SA-HRP uptake, Cyt. ([31]; KM12, cytoplasmic): 3.6 ng | SA-HRP uptake, Nuc. ([31]; KM12, nuclear): 1.0 ng | SA-HRP uptake, Cyt. (ng), Median ([32]; cytoplasmic): 7.4 ng | SA-HRP uptake, Nuc. (ng), Median ([32]; nuclear): 1.8 ng
